Experimental data from US10792265B2, “Methods of treating or preventing fibrotic lung diseases” (YALE UNIVERSITY, priority 2014, dated 2020).
“Also recorded” adds a separate entry of the source.

Experiments:
[1] = system: bleomycin-induced fibrosis in mice; experiment: Bleomycin-induced lung fibrosis model in mice (hydroxyproline, collagen, qRT-PCR of fibrotic genes, Masson trichrome); assay type: in vivo
[2] = system: alveolar epithelial cells isolated from bleomycin injured lungs; experiment: Gene expression analysis in alveolar epithelial cells isolated from bleomycin injured lungs before and after T3 aerosolized delivery; assay type: in vivo
Source text: Experiments were run to delineate a potential mechanistic pathway through which thyroid hormones exert their protective role in the development and progression of experimental lung fibrosis. […] Similar experiments were run in A549 lung adenocarcinoma cell lines before and after thyroid hormone administration.

[3] = T3 and TSH level in the sera of treated bleomycin mice (ELISA); assay type: in vivo
[4] = system: bleomycin-induced mortality; experiment: Bleomycin-induced mortality by Kaplan-Meier survival curve analysis; assay type: in vivo, mice; settings: bleomycin 4.5 U/kg intratracheally day 0; T3 40 μg/kg nebulized and inhaled every other day since day 7 (FIG. 5F)
Procedure: 40 μg/kg of T3 was nebulized and inhaled day 10, 12, 14, 16 after bleomycin treatment at dose of 1.5 U/kg, Saline as control. Mice were sacrificed at day 21. […] FIG. 5B: Col1a1 mRNA expression was detected by QRT-PCR (n=8 in each group). FIG. 5C: Col3a1 mRNA expression was detected by QRT-PCR. […] FIG. 5F: Bleomycin-induced mortality by Kaplan-Meier survival curve analysis. 4.5 U/kg of bleomycin was delivered intratracheally at day 0, 40 μg/kg of T3 was nebulized and inhaled every other day since day 7, saline treatment as control group.

[5] = treatment injected at day 3 after bleomycin, sacrificed day 14 (FIG. 4A)
[6] = treatment injected at day 7 after bleomycin, sacrificed day 14 (FIG. 4C)

SMILES	Bleomycin-induced lung fibrosis (overall severity) ([1]; bleomycin 1.5 U/Kg intratracheally, PTU 100 mg/kg intraperitoneally at day 3 and day 7, sacrificed day 14)	Hydroxyproline content in the right lungs ([1]; bleomycin 1.5 U/Kg, PTU 100 mg/kg intraperitoneally day 3 and day 7, day 14 (FIG. 3A))	Collagen content in the right lungs ([1]; bleomycin 1.5 U/Kg, PTU 100 mg/kg intraperitoneally day 3 and day 7, day 14 (FIG. 3B))	Hydroxyproline measurements [1, 5]	Hydroxyproline measurements [1, 6]	Gene expression in alveolar epithelial cells [2]	T3 level in the sera by ELISA ([3]; after T3 inhalation 40 μg/kg in bleomycin mice, n=10 (FIG. 5D))	Bleomycin-induced fibrosis (overall) ([1]; T3 40 μg/kg nebulized and inhaled day 10, 12, 14, 16 after bleomycin 1.5 U/kg, sacrificed day 21)	Hydroxyproline content ([1]; T3 inhalation 40 μg/kg day 10, 12, 14, 16 after bleomycin 1.5 U/kg, day 21 (FIG. 5A))	Survival / bleomycin-induced mortality (Kaplan-Meier) [4]	Circulating levels of T3 ([3]; after T4 systemic administration in bleomycin mice, n=10, p<0.05 (FIG. 4E))	Pulmonary fibrosis / fibrotic process (fibrotic markers and structural changes) ([1]; T4 after bleomycin instillation, intraperitoneal, 40 mg/kg or 50 mg/kg, sacrificed day 14)	Gene expressions of Col1a1, Col3a1, S100a4 and Acta2 (QRT-PCR) ([1]; T4 injected at day 3 after bleomycin, n=8, p<0.05 (FIG. 4B))	Gene expressions of Col1a1, Col3a1, S100a4 and Acta2 (QRT-PCR) ([1]; T4 injected at day 7 after bleomycin, n=8, p<0.05 (FIG. 4D))	Fibrotic and inflammatory response to bleomycin, histological examination by masson trichrome staining ([1]; T4 treatment at either day 3 or day 7 (FIG. 4G))
CCCc1cc(=O)[nH]c(=S)[nH]1 [PTU, propylthiouracil]	more severe bleomycin-induced lung fibrosis; also recorded: aggravates fibrosis	significant elevation	significant elevation	significant increase	significant increase										
N[C@@H](Cc1cc(I)c(Oc2ccc(O)c(I)c2)c(I)c1)C(=O)O [T3, (S)-2-amino-3-[4-(4-hydroxy-3-iodophenoxy)-3,5-diiodophenyl]propanoic acid]						upregulation of several anti-apoptotic genes	does not affect the level of T3	blunts bleomycin-induced fibrosis	statistically significant blunting; also recorded: declines hydroxyproline content	significant increase in survival; also recorded: reduces mortality					
N[C@@H](Cc1cc(I)c(Oc2cc(I)c(O)c(I)c2)c(I)c1)C(=O)O [T4, (S)-2-amino-3-[4-(4-hydroxy-3,5-diiodophenoxy)-3,5-diiodophenyl]propanoic acid]				no statistically significant reduction; also recorded: no statistical difference in the T4 treated group from the saline group	no statistically significant reduction; also recorded: no statistical difference in the T4 treated group from the saline group						statistically significant increase	significant attenuation of the fibrotic process; also recorded: attenuates the pulmonary fibrosis	markedly suppresses	significantly suppresses	attenuated
